Laboratory results as given in ChEMBL document CHEMBL1121424, “Orally active cephalosporins and penicillins” (J Med Chem, 1980).
Values after ≈ are worked out from the molar mass of the structure shown.

Columns and labels:
Enterococcus faecalis = assay: Tested for inhibition of visible growth of Streptococcus faecalis; type: functional
Streptococcus pneumoniae [1] = assay: Tested for inhibition of visible growth of Streptococcus pneumoniae; type: functional
Proteus mirabilis = assay: Tested for inhibition of visible growth of Proteus mirabilis; type: functional
Klebsiella aerogenes = assay: Tested for inhibition of visible growth of Enterobacter aerogenes; type: functional
Staphylococcus aureus [2] = assay: Tested for inhibition of visible growth of Staphylococcus aureus; type: functional
Staphylococcus aureus [3] = assay: Tested for inhibition of visible growth of Staphylococcus aureus, benzyl-penicillin sensitive; type: functional
in vivo = conditions: mouse, po, 43 mg/kg
Description: Tested for the peak time in mice following 43 mg/kg oral dose of cephalosporin

Klebsiella pneumoniae = assay: Tested for inhibition of visible growth of Klebsiella pneumoniae; type: functional
Enterobacter cloacae = assay: Tested for inhibition of visible growth of Enterobacter cloacae; type: functional
[4] = Tested for inhibition of visible growth of Salmonella schottmuelleri; type: functional
Escherichia coli [5] = assay: Tested for inhibition of visible growth of Escherichia coli; type: functional
Streptococcus pyogenes [6] = assay: Tested for inhibition of visible growth of Streptococcus pyogenes; type: functional
Escherichia coli [7] = assay: Tested for the antimicrobial activity against Escherichia coli in mice; type: functional
Streptococcus pneumoniae [8] = assay: (§1) Tested for the antimicrobial activity against Streptococcus pneumoniae in mice; type: functional
Streptococcus pyogenes [9] = assay: (§2) Tested for the antimicrobial activity against Streptococcus pyogenes in mice; type: functional
Streptococcus pyogenes [10] = assay: as §2; type: functional; remark: listed apart in the source
Escherichia coli [11] = assay: Tested for the antimicrobial activity against Escherichia coli in mice perorally; type: functional; conditions: po
[12] = (§3) Tested for the antimicrobial activity against Salmonella schottmuelleri in mice; type: functional
[13] = tested for the peak time in mice following 6.9 mg/kg, oral (administered as the hydrochloride salt dissolved in H2O); type: ADME, organism-based; parameters: dose 6.9 mg/kg, route oral; conditions: mouse, in vivo, read-out: Peak time (converted)
Streptococcus pneumoniae [14] = assay: as §1; type: functional; remark: listed apart in the source
Staphylococcus aureus [15] = assay: Tested for the antimicrobial activity against Staphylococcus aureus; type: functional
[16] = as §3; type: functional; remark: listed apart in the source
[17] = Tested for the peak time in mice following 11.8 mg/kg, oral (administered as the sodium salt dissolved in H2O); type: ADME, organism-based; parameters: dose 11.8 mg/kg, route oral; conditions: mouse, in vivo, read-out: Peak time (converted)
Staphylococcus aureus [18] = assay: Tested for the antimicrobial activity against Staphylococcus aureus, benzyl-penicillin sensitive in mice, perorally; type: functional; conditions: po
Mus musculus [19] = assay: Tested for the antimicrobial activity against Streptococcus pyogenes in mice, subcutaneously.; type: functional; conditions: sc
Mus musculus [20] = assay: Tested for the antimicrobial activity against […], benzyl-penicillin sensitive in mice, subcutaneously; type: functional; conditions: sc
Mus musculus [21] = species: Mus musculus; assay: Tested for the antimicrobial activity against Staphylococcus aureus, benzyl-penicillin sensitive in mice, perorally; conditions: po

MIC (Enterococcus faecalis)	MIC (Streptococcus pneumoniae [1])	MIC (Proteus mirabilis)	MIC (Klebsiella aerogenes)	MIC (Staphylococcus aureus [2])	MIC (Staphylococcus aureus [3])	MIC (Klebsiella pneumoniae)	MIC (Enterobacter cloacae)	MIC [4]	MIC (Escherichia coli [5])	MIC (Streptococcus pyogenes [6])	SMILES	ED50 (Escherichia coli [7])	ED50 (Streptococcus pneumoniae [8])	ED50 (Streptococcus pyogenes [9])	ED50 (Streptococcus pyogenes [10])	ED50 (Escherichia coli [11])	ED50 [12]	ED50 (Streptococcus pneumoniae [14])	ED50 [16]	also measured
≥ 100 µg/mL	1.6 µg/mL (≈ 4.61 µM)	12.5 µg/mL (≈ 36 µM)	25 µg/mL (≈ 72 µM)	3.1 µg/mL (≈ 8.92 µM)	0.8 µg/mL (≈ 2.3 µM)	3.1 µg/mL (≈ 8.92 µM)	25 µg/mL (≈ 72 µM)	3.1 µg/mL (≈ 8.92 µM)	6.2 µg/mL (≈ 17.8 µM)	0.4 µg/mL (≈ 1.15 µM)	CC1=C(C(=O)O)N2C(=O)[C@@H](NC(=O)[C@H](N)c3ccccc3)[C@H]2SC1 [CEPHALEXIN ANHYDROUS]	–	–	–	–	–	–	–	–	Tmax (in vivo): 15 min
50 µg/mL (≈ 95.9 µM)	0.1 µg/mL (≈ 0.192 µM)	> 100 µg/mL	25 µg/mL (≈ 47.9 µM)	3.1 µg/mL (≈ 5.94 µM)	0.2 µg/mL (≈ 0.383 µM)	6.2 µg/mL (≈ 11.9 µM)	25 µg/mL (≈ 47.9 µM)	1.6 µg/mL (≈ 3.07 µM)	12.5 µg/mL (≈ 24 µM)	0.1 µg/mL (≈ 0.192 µM)	Cc1nnc(SCC2=C(C(=O)O)N3C(=O)C(NC(=O)[C@H](N)c4ccc5c(c4)OCO5)C3SC2)s1 (some centres not stated)	10.6 mg/kg	1.3 mg/kg	0.84 mg/kg	0.23 mg/kg	33.9 mg/kg	40 mg/kg	0.79 mg/kg	8 mg/kg	Tmax [13]: 30 min; ED50 (Staphylococcus aureus [15]): 0.29 mg/kg; Tmax [17]: 30 min; ED50 (Staphylococcus aureus [18]): 0.8 mg/kg
100 µg/mL (≈ 205 µM)	0.1 µg/mL (≈ 0.205 µM)	100 µg/mL (≈ 205 µM)	25 µg/mL (≈ 51.2 µM)	1.6 µg/mL (≈ 3.27 µM)	0.4 µg/mL (≈ 0.819 µM)	6.2 µg/mL (≈ 12.7 µM)	50 µg/mL (≈ 102 µM)	3.1 µg/mL (≈ 6.35 µM)	12.5 µg/mL (≈ 25.6 µM)	0.1 µg/mL (≈ 0.205 µM)	NC(C(=O)NC1C(=O)N2C(C(=O)O)=C(CSc3cn[nH]n3)CS[C@H]12)c1ccc2c(c1)CCO2 (some centres not stated)	11 mg/kg	–	0.27 mg/kg	–	19 mg/kg	> 40 mg/kg	–	30 mg/kg	ED50 (Mus musculus [19]): 0.19 mg/kg
50 µg/mL (≈ 98.9 µM)	0.1 µg/mL (≈ 0.198 µM)	25 µg/mL (≈ 49.5 µM)	3.1 µg/mL (≈ 6.13 µM)	1.6 µg/mL (≈ 3.16 µM)	0.2 µg/mL (≈ 0.396 µM)	3.1 µg/mL (≈ 6.13 µM)	6.2 µg/mL (≈ 12.3 µM)	0.8 µg/mL (≈ 1.58 µM)	3.1 µg/mL (≈ 6.13 µM)	0.05 µg/mL (≈ 0.0989 µM)	Cn1nnnc1SCC1=C(C(=O)O)N2C(=O)C(NC(=O)[C@H](N)c3ccc4c(c3)OCO4)C2SC1 (some centres not stated)	2.1 mg/kg	> 10 mg/kg	0.37 mg/kg	0.14 mg/kg	–	16 mg/kg	0.74 mg/kg	< 3.1 mg/kg	ED50 (Mus musculus [20]): 0.31 mg/kg; ED50 (Mus musculus [21]): > 2 mg/kg
